These results are taken from US12428406B2 (PMV Pharmaceuticals, Inc., priority 2019, dated 2025).

Molecules are shown by their SMILES.

The target of the test is T1, p53 Y220C (Homo sapiens, UniProt P04637, Y220C).
T1 construct: The recombinant protein was a truncation mutant containing only amino acids 94-312 of p53; made in house; host or cells: E. coli
T1 sequence (P04637 94-312, change not shown): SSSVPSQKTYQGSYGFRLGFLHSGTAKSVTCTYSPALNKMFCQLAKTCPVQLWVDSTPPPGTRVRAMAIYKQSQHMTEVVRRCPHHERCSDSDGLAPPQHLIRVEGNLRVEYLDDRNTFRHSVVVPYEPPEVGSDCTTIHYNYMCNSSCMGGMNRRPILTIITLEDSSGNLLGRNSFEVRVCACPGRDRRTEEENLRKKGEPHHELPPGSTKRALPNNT
Nature of the test: In vitro DNA binding activity assay (HTRF / TR-FRET): stabilization of p53 Y220C and increase of its DNA binding activity. It counts as biochemical. The note with it: recombinant His-tagged p53 Y220C DNA binding domain (aa 94-312), biotin-labeled consensus DNA, incubated at 27° C. or 29° C. for 60 min. The essentials: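 Stabilization of the mutant is inferred from increased binding of His-tagged p53 Y220C to a biotin-labeled consensus DNA, detected by HTRF with europium-streptavidin and APC-anti-His antibody. The concentration giving a 50% rise over compound-free binding is reported as SC150.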
For the molecule `COCC(O)CN1CCC(Nc2cccc3c2cc(C#CCNc2ccc(S(C)(=O)=O)cc2OC)n3CC(C)(F)F)CC1` (stereo not drawn) [Compound 712A, 1-(4-{[1-(2,2-difluoropropyl)-2-{3-[(4-methanesulfonyl-2-methoxyphenyl)amino]prop-1-yn-1-yl}-1H-indol-4-yl]amino}piperidin-1-yl)-3-methoxypropan-2-ol], the “SC150 (concentration of the compound required to increase the DNA binding activity by 50%)” value is “++ (++ = 0.05 μM ≤ SC150 < 0.1 μM)”.

Consider `COc1cc(S(C)(=O)=O)ccc1NCC#Cc1cc2c(NC3CCN(CC(O)COC(=O)C(C)C)CC3)cccc2n1CC(F)(F)F` (stereo not drawn) [Compound 592A, 2-hydroxy-3-{4-[(2-{3-[(4-methanesulfonyl-2-methoxyphenyl)amino]prop-1-yn-1-yl}-1-(2,2,2-trifluoroethyl)-1H-indol-4-yl)amino]piperidin-1-yl}propyl 2-methylpropanoate], for which the “SC150 (concentration of the compound required to increase the DNA binding activity by 50%)” value was “+ (+ = 0 μM ≤ SC150 < 0.05 μM)”.

On to `CNC(=O)c1ccc(NCC#Cc2cc3c(N[C@H]4CC[C@H](N5CCC6(CCO6)CC5)CC4)cccc3n2CC(F)(F)F)c(OC)c1` [Compound 385A, 3-methoxy-N-methyl-4-{[3-(4-{[(1R,4R)-4-{1-oxa-7-azaspiro[3.5]nonan-7-yl}cyclohexyl]amino}-1-(2,2,2-trifluoroethyl)-1H-indol-2-yl)prop-2-yn-1-yl]amino}benzamide], for which the “SC150 (concentration of the compound required to increase the DNA binding activity by 50%)” value is reported as “+ (+ = 0 μM ≤ SC150 < 0.05 μM)”.

With `COc1cc(S(=O)(=O)NC(C)=O)ccc1NCC#Cc1cc2c(N[C@H]3CC[C@H](N4CC5(CCOCC5)C4)CC3)cccc2n1CC(F)(F)F` [Compound 305A, N-((4-((3-(4-(((1R,4R)-4-(7-oxa-2-azaspiro[3.5]nonan-2-yl)cyclohexyl)amino)-1-(2,2,2-trifluoroethyl)-1H-indol-2-yl)prop-2-yn-1-yl)amino)-3-methoxyphenyl)sulfonyl)acetamide], the “SC150 (concentration of the compound required to increase the DNA binding activity by 50%)” value was “+ (+ = 0 μM ≤ SC150 < 0.05 μM)”.

`COc1cc(S(C)(=O)=O)ccc1NCC#Cc1cc2c(N[C@H]3CC[C@H](N4CCC5(CCOC5)CC4)CC3)cccc2n1CC(F)(F)F` [Compound 410A, 2-{3-[(4-methane-sulfonyl-2-methoxy-phenyl)amino]prop-1-yn-1-yl}-N-[(1R,4R)-4-{2-oxa-8-azaspiro[4.5]decan-8-yl}cyclohexyl]-1-(2,2,2-trifluoroethyl)-1H-indol-4-amine]: the “SC150 (concentration of the compound required to increase the DNA binding activity by 50%)” value is listed as “+ (+ = 0 μM ≤ SC150 < 0.05 μM)”.

For `COc1cc(S(N)(=O)=O)ccc1NCC#Cc1cc2c(N[C@H]3CC[C@@H](N4C[C@H](O)[C@@H](O)C4)CC3)cccc2n1CC(F)(F)F` [Compound 58A, 3-methoxy-4-{[3-(4-{[(1S,4S)-4-[(3S,4S)-3,4-dihydroxypyrrolidin-1-yl]cyclohexyl]amino}-1-(2,2,2-trifluoroethyl)-1H-indol-2-yl)prop-2-yn-1-yl]amino}benzene-1-sulfonamide], the “SC150 (concentration of the compound required to increase the DNA binding activity by 50%)” value is “+ (+ = 0 μM ≤ SC150 < 0.05 μM)”.

Turning to `COc1cc(S(N)(=O)=O)ccc1NCC#Cc1cc2c(NC3CCN(C(=O)CO)CC3)cccc2n1CC(F)(F)F` [Compound 748A], the “SC150 (concentration of the compound required to increase the DNA binding activity by 50%)” value is on record as “+ (+ = 0 μM ≤ SC150 < 0.05 μM)”.

On to `CNC(=O)c1ccc(NCC#Cc2cc3c(NC4CCN(CC(O)CO)CC4)cccc3n2CC(F)(F)F)c(OC)c1` (stereo not drawn) [Compound 658A, 4-{[3-(4-{[1-(2,3-dihydroxypropyl)piperidin-4-yl]amino}-1-(2,2,2-trifluoroethyl)-1H-indol-2-yl)prop-2-yn-1-yl]amino}-3-methoxy-N-methylbenzamide], for which the “SC150 (concentration of the compound required to increase the DNA binding activity by 50%)” value is given as “+ (+ = 0 μM ≤ SC150 < 0.05 μM)”.

`COc1cc(S(=O)(=O)Nc2ccon2)ccc1NCC#Cc1cc2c(NC3CCN(CC(O)CO)CC3)cccc2n1CC(F)(F)F` (stereo not drawn) [Compound 547A, 4-{[3-(4-{[1-(2,3-dihydroxypropyl)piperidin-4-yl]amino}-1-(2,2,2-trifluoroethyl)-1H-indol-2-yl)prop-2-yn-1-yl]amino}-3-methoxy-N-(1,2-oxazol-3-yl)benzene-1-sulfonamide]: the “SC150 (concentration of the compound required to increase the DNA binding activity by 50%)” value is reported as “+ (+ = 0 μM ≤ SC150 < 0.05 μM)”.

Consider `CNC(=O)c1ccc(NCC#Cc2cc3c(N[C@H]4CC[C@@H](N(C)CCOC)CC4)cccc3n2CC(F)(F)F)c(OC)c1` [Compound 152A, 3-methoxy-N-methyl-4-{[3-(4-{[(1S,4S)-4-[(2-methoxyethyl) (methyl)amino]cyclohexyl]amino}-1-(2,2,2-trifluoroethyl)-1H-indol-2-yl)prop-2-yn-1-yl]amino}benzamide], for which the “SC150 (concentration of the compound required to increase the DNA binding activity by 50%)” value is “+ (+ = 0 μM ≤ SC150 < 0.05 μM)”.

As to `COc1cc(C(=O)NC2CCOCC2)ccc1NCC#Cc1cc2c(NC3CCN(C)CC3)cccc2n1CC(F)(F)F` [Compound 500A, 3-methoxy-4-[(3-{4-[(1-methylpiperidin-4-yl)amino]-1-(2,2,2-trifluoroethyl)-1H-indol-2-yl}prop-2-yn-1-yl)amino]-N-(oxan-4-yl)benzamide], the “SC150 (concentration of the compound required to increase the DNA binding activity by 50%)” value is recorded as “+ (+ = 0 μM ≤ SC150 < 0.05 μM)”.

With `COc1cc(S(N)(=O)=O)ccc1NCC#Cc1cc2c(NC3CCN(CC4COC(=O)O4)CC3)cccc2n1CC(F)(F)F` (stereo not drawn) [Compound 546A, 3-methoxy-4-({3-[4-({1-[(2-oxo-1,3-dioxolan-4-yl)methyl]piperidin-4-yl}amino)-1-(2,2,2-trifluoroethyl)-1H-indol-2-yl]prop-2-yn-1-yl}amino)benzene-1-sulfonamide], the “SC150 (concentration of the compound required to increase the DNA binding activity by 50%)” value is “+ (+ = 0 μM ≤ SC150 < 0.05 μM)”.

For `CS(=O)(=O)c1ccc(NCC#Cc2cc3c(N[C@H]4CC[C@H](N5CC6(COC6)C5)CC4)cccc3n2CC(F)(F)F)c(OCCF)c1` [Compound 210A, N-((1R,4R)-4-(2-oxa-6-azaspiro[3.3]heptan-6-yl)cyclohexyl)-2-(3-((2-(2-fluoroethoxy)-4-(methylsulfonyl)phenyl)amino)prop-1-yn-1-yl)-1-(2,2,2-trifluoroethyl)-1H-indol-4-amine], the “SC150 (concentration of the compound required to increase the DNA binding activity by 50%)” value is listed as “+ (+ = 0 μM ≤ SC150 < 0.05 μM)”.

In the case of `CN1CCC(Nc2cccc3c2cc(C#CCNc2ccc(S(C)(=O)=O)cc2O)n3CC(F)(F)F)CC1` [Compound 486A, 5-methanesulfonyl-2-[(3-{4-[(1-methylpiperidin-4-yl)amino]-1-(2,2,2-trifluoroethyl)-1H-indol-2-yl}prop-2-yn-1-yl)amino]phenol], the “SC150 (concentration of the compound required to increase the DNA binding activity by 50%)” value is “+ (+ = 0 μM ≤ SC150 < 0.05 μM)”.

With `CCS(=O)(=O)c1ccc(NCC#Cc2cc3c(N[C@H]4CC[C@H](N5CC6(COC6)C5)CC4)cccc3n2CC(F)(F)F)c(OC)c1` [Compound 269A, N-((1R,4R)-4-(2-oxa-6-azaspiro[3.3]heptan-6-yl)cyclohexyl)-2-(3-((4-(ethylsulfonyl)-2-methoxyphenyl)amino)prop-1-yn-1-yl)-1-(2,2,2-trifluoroethyl)-1H-indol-4-amine], the “SC150 (concentration of the compound required to increase the DNA binding activity by 50%)” value is “+ (+ = 0 μM ≤ SC150 < 0.05 μM)”.

Turning to `CCOc1cc(S(C)(=O)=O)ccc1NCC#Cc1cc2c(N[C@H]3CC[C@H](N4CC5CC(C4)O5)CC3)cccc2n1CC(F)(F)F` [Compound 404A, 2-{3-[(2-ethoxy-4-methanesulfonyl-phenyl)amino]prop-1-yn-1-yl}-N-[(1R,4R)-4-{6-oxa-3-azabicyclo[3.1.1]heptan-3-yl}cyclohexyl]-1-(2,2,2-trifluoroethyl)-1H-indol-4-amine], the “SC150 (concentration of the compound required to increase the DNA binding activity by 50%)” value is listed as “+ (+ = 0 μM ≤ SC150 < 0.05 μM)”.

Take `COc1cc(S(C)(=O)=O)ccc1NCC#Cc1cc2c(N[C@H]3CCN(C)C[C@H]3F)cc(F)cc2n1CC(F)(F)F` (racemic) [Compound 836A, rac-6-fluoro-N-[(3R,4S)-3-fluoro-1-methylpiperidin-4-yl]-2-{3-[(4-methanesulfonyl-2-methoxyphenyl)amino]prop-1-yn-1-yl}-1-(2,2,2-trifluoroethyl)-1H-indol-4-amine]: the “SC150 (concentration of the compound required to increase the DNA binding activity by 50%)” value is reported as “+ (+ = 0 μM ≤ SC150 < 0.05 μM)”.

Turning to `COCC(O)CN1CC[C@H](Nc2cccc3c2cc(C#CCNc2ccc(S(C)(=O)=O)cc2OC)n3CC(F)(F)F)[C@@H](C)C1` (mixture of isomers) [Compound 702A, rac-1-[(3R,4S)-4-[(2-{3-[(4-methanesulfonyl-2-methoxyphenyl)amino]prop-1-yn-1-yl}-1-(2,2,2-trifluoroethyl)-1H-indol-4-yl)amino]-3-methylpiperidin-1-yl]-3-methoxypropan-2-ol], the “SC150 (concentration of the compound required to increase the DNA binding activity by 50%)” value was “+ (+ = 0 μM ≤ SC150 < 0.05 μM)”.

Turning to `COc1cc(S(=O)(=O)Nc2ccon2)ccc1NCC#Cc1cc2c(N[C@H]3CC[C@@H](N(C)C)CC3)cccc2n1CC(F)(F)F` [Compound 50A, 3-methoxy-N-(1,2-oxazol-3-yl)-4-{[3-(4-{[(1S,4S)-4-(dimethylamino)cyclohexyl]amino}-1-(2,2,2-trifluoro-ethyl)-1H-indol-2-yl)prop-2-yn-1-yl]amino}benzene-1-sulfonamide], the “SC150 (concentration of the compound required to increase the DNA binding activity by 50%)” value is “+ (+ = 0 μM ≤ SC150 < 0.05 μM)”.

`COc1cc(S(C)(=O)=O)ccc1NCC#Cc1cc2c(NC(=O)N[C@H]3CC[C@H](N(C)C)CC3)cccc2n1CC(F)(F)F` [Compound 12A, 3-(2-{3-[(4-methanesulfonyl-2-methoxyphenyl)amino]prop-1-yn-1-yl}-1-(2,2,2-trifluoroethyl)-1H-indol-4-yl)-1-[(1R,4R)-4-(dimethylamino)cyclohexyl]urea]: the “SC150 (concentration of the compound required to increase the DNA binding activity by 50%)” value is on record as “+ (+ = 0 μM ≤ SC150 < 0.05 μM)”.

In the case of `COc1cc(S(N)(=O)=O)ccc1NCC#Cc1cc2c(N[C@H]3C[C@@H](C)O[C@@H](C)C3)cccc2n1CC(F)(F)F` [Compound 1032A, 3-methoxy-4-{[3-(4-{[(2R,4R,6S)-2,6-dimethyloxan-4-yl]amino}-1-(2,2,2-trifluoroethyl)-1H-indol-2-yl)prop-2-yn-1-yl]amino}benzene-1-sulfonamide], the “SC150 (concentration of the compound required to increase the DNA binding activity by 50%)” value is recorded as “++ (++ = 0.05 μM ≤ SC150 < 0.1 μM)”.
